The results in this text go back to patent US8906952B2, “Indole derivative or pharmaceutically acceptable salt thereof, preparation method thereof, and pharmaceutical composition for preventing or treating metabolic diseases containing same as active ingredient” (Korea Research Institute of Bioscience and Biotechnology, priority 2011, dated 2014).

pIC50: −log10 of the molar value. Like-named read-outs stand apart in the source and are kept apart here.

Experiment [1] deals with HepG2 cells. The experiment in a line: DGAT inhibitory effect in HepG2 cells (triglyceride production from [14C]glycerol). As to conditions: Homo sapiens; for activity at 10 µM: HepG2, 6 h, DMSO control = 100, read-out: Triglyceride production rate (%)/HepG2 cells at 10 μM; for inhibition at 10 µM: HepG2, 10 μM, read-out: biosynthesis inhibition rate of triglyceride. In kind it is cell-based. Here is the method:
To investigate inhibition effect on intracellular DGAT enzyme activity of the compounds obtained in Examples 1-51, intracellular DGAT enzyme activity was measured using human-derived liver HepG2 cells.
HepG2 cells were purchased from ATCC, and cultured in 37° C., 5% CO2 incubator including minimum essential medium (2 mM L-glutamine, earle's BSS adjusted to contain 1.5 g/L sodium bicarbonate, 0.1 mM nonessential amino acids, and 1 mM sodium pyruvate) added with 10% fetal bovine serum (FBS) and 1% antibiotic (100 U/ml penicillin and 100 µg/ml streptomycin).
The intracellular DGAT enzyme activity was measured based on an amount of triglycerides produced in the cultured HepG2 cells, by adding 10 μM enzyme inhibitor compounds obtained in Examples 1-51, respectively, and then determining the effect of the enzyme inhibitors according to reduction rate of the triglyceride production.
Specifically, cells were seeded 1×10^6 cell/ml per well of the 24 well culture plate, and 24 hours after incubation, medium was exchanged with FBS-free DMEM medium, and sample of 0.2 mCi [^14C]glycerol (Amersham) was added as substrate, and the reaction was allowed to occur for 6 hr. The induced production of triglyceride was catalyzed by the DGAT enzyme, and DGAT enzyme activity was determined based on the amount of production of triglyceride which was measured based on the amount of radiation. The sample was dissolved in dimethylsulfoxide (DMSO) to be used, and the control group in the triglyceride production reaction was reacted with dimethylsulfoxide only (i.e., without sample), and the amount of the triglyceride production rate was set to 100.
After the reaction completed, the substrate [^14C]glycerol which was either not absorbed into cells or not used for the reaction, were removed with phosphate-buffer-saline (PBS), and 0.5 ml extraction solvent (hexane:isopropanol=3:2, v:v) was added to extract full fat containing triglycerides. With 0.5 ml extraction solvent, extract was obtained two times for 30 min each, and 1 ml of the extract was concentrated with nitrogen gas. After removing the extraction solvent, the total fat was dissolved in organic solvent (chloroform:methanol=2:1) and spotted with thin-layer chromatography (TLC:silica gel 60F254, thickness: 0.5 mm, Merck) on the developing solvent (hexane:diethyl ether:acetic acid=80:20:1, v: v: v). Triglycerides (Rf value: 0.4) were isolated on TLC, and after exposing the TLC plate to the film with photosensitivity to radiation energy (imaging plate' Fujifilm, BMS-MS 2040) for 3 hr, the amount of [^14C] radiation of triglyceride was measured by imaging analysis (FLA 7000). The remaining cells after the extraction were dissolved in 0.3 ml 0.1 N sodium hydroxide for use in the measurement of protein concentration of the cells used for the reaction.
The experimental errors among the respective experimental groups were compensated with the experimental value which was obtained by dividing the measured radiation of triglyceride by protein concentration, and the production rate of triglyceride according to the respective compounds of Examples 1-51 are tabulated below.

The target in experiment [2] is T1, human DGAT2 (Homo sapiens, UniProt Q96PD7).
T1 construct: made in house; host or cells: sf9 insect cells
T1 sequence (Q96PD7 1-388): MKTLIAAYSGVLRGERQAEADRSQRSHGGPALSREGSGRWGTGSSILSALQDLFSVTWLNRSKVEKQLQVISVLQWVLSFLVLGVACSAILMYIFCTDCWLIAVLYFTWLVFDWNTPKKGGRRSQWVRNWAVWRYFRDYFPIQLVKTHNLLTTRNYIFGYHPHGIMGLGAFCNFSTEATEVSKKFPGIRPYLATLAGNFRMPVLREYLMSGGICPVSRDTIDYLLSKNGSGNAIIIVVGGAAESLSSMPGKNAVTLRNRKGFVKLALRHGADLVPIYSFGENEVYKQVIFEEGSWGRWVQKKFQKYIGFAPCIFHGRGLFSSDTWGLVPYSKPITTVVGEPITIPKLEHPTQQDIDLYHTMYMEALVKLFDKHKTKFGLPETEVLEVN
The experiment in a line: DGAT enzyme inhibition test, hDGAT2 enzyme from sf9 insect cells (DGAT2 selectivity). In kind it is biochemical. The text has this:
(§1) To investigate inhibitory effect of the compounds of Examples 1-33 against DGAT enzyme activity, DGAT enzyme inhibition and DGAT2 selectivity were investigated using zymogen including:
(§2) 1) hDGAT1 and hDGAT2 enzymes, derived from insect cell overexpressing human DGAT1 and DGAT2 (‘sf9’), respectively,
(§3) To be specific, for the purpose of measuring human-derived DGAT enzyme inhibitory activity, using the zymogen, including enzymes derived from insect cell overexpressing human DGAT1 and DGAT2 (‘sf9’), microsomal protein isolated from human duodenal adenocarcinoma (‘Hutu 80’), and microsomal protein isolated from rat, and according to Coleman et al., (Methods Enzymol., 98-103, 1992), and substrate including 1,2-diacylglycerol(Sigma, D0138) and [^14C]palmitoyl-CoA (Amersham, CFA583), the amount of radiation of [^14C]triacylglycerol produced after enzymatic reaction was measured.
(§4) To be more specific, to the reaction solution containing 175 mM Tris-HCl (pH 8.0), 20 μl bovine serum albumin (10 mg/ml), 100 mM magnesium chloride, 30 μM [^14C]palmitoyl CoA (0.02 μCi, Amersham) and 200 μM 1,2-dioleoylglycerol, reagent dissolved in dimethylsulfoxide (10.0 μl) was added. After introducing 100 to 200 μg isolated microsomal protein and allowing the same to react at 25° C. for 10 min, the reaction was stopped by adding 1.5 ml stop solution (2-propanol:heptane:water=80:20:2, v:v:v). To isolate the product of the reaction (i.e., [^14C]triacylglycerol), 1 ml heptane and 0.5 ml distilled water were added and then decocted. After taking 1 ml supernatant, 2 ml alkaline ethanol solution (ethanol:0.5 N sodium hydroxide:water=50:10:40, v:v:v) were added and then decocted. After taking 0.65 ml supernatant from the decoction, the amount of radiation was measured with liquid scintillation counter (LSC). The DGAT inhibitory activity was calculated with Mathematical Expression 1 below:
(§5) T denotes cpm of experimental group in which the enzymatic reaction solution was treated with the sample,
(§6) C denotes cpm of control group in which the enzymatic reaction solution was not treated with the sample, and
(§7) B denotes cpm of control group treated with the sample without zymogen.

The target of experiment [3] is T2, human DGAT1 (Homo sapiens, UniProt O75907).
T2 construct: made in house; host or cells: sf9 insect cells
T2 sequence (O75907 1-488): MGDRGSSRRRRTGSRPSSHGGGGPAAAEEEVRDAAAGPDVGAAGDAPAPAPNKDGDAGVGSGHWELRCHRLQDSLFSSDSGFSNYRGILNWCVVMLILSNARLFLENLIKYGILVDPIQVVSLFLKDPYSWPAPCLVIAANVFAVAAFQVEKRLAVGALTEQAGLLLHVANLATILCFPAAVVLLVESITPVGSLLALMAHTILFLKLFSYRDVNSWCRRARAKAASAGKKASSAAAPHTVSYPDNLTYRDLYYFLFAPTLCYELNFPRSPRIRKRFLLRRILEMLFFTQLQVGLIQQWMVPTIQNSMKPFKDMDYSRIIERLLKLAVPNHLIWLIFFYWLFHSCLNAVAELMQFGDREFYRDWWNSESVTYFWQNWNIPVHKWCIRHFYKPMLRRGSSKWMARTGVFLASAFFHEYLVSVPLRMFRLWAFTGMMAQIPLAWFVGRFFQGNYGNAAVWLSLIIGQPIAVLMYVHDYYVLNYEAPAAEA
The experiment in a line: DGAT enzyme inhibition test, hDGAT1 enzyme from sf9 insect cells. In kind it is biochemical. As to conditions: enzyme from sf9 cells overexpressing hDGAT1; read-out: hDGAT-1 (sf9) IC50.
Excerpt: as §1, §2, §3, §4, §5, §6, §7

Setting [4] is: 10 μM, enzyme from sf9 cells overexpressing hDGAT2, read-out: hDGAT-2 (sf9) inhibition rate(%)at 10 μM.
Where [5] appears, read: concentration of 10 μM, read-out: hDGAT2 inhibition.

In the case of `CC(C)=CCn1cc(/C=C/C(=O)N(NC(=O)c2cccc(F)c2)C(C)C)c2ccccc21` [Example 34], in experiment [1], the activity at 10 µM was found to be 58%. For the same compound, the inhibition – broadly, the drop in the measured response relative to a control, in per cent – at 10 µM in experiment [2] (setting [4]) was 18.5%. Moreover, the negative-log IC50 (pIC50) (as a rule, the negative decadic logarithm of the IC50, by convention in mol/L) in experiment [3] was 5.14.

For the compound `Cc1ccc2c(c1)c(/C=C/C(=O)N(NC(=O)c1cccc(F)c1)C(C)C)cn2C(=O)OC(C)(C)C` [Example 35, (E)-tert-butyl 3-(3-(2-(3-fluorobenzoyl)-1-isopropylhydrazinyl)-3-oxoprop-1-enyl)-5-methyl-1H-indole-1-carboxylate], the activity at 10 µM in experiment [1] is 57.6%. Also, the inhibition at 10 µM in experiment [2] (setting [4]) is 2%; in experiment [2] (setting [5]) it was less than 11%. Besides, the negative logarithm of the IC50 (pIC50) in experiment [3] was 5.49.

With `CC(C)c1ccc2c(/C=C/C(=O)N(NC(=O)c3cccc(F)c3)C(C)C)cn(C(=O)OC(C)(C)C)c2c1` [Example 36, (E)-tert-butyl 3-(3-(2-(3-fluorobenzoyl)-1-isopropylhydrazinyl)-3-oxoprop-1-enyl)-6-isopropyl-1H-indole-1-carboxylate], in experiment [1], the activity at 10 µM was 75% and the inhibition at 10 µM is 20 to 30%. In addition, the inhibition at 10 µM in experiment [2] (setting [4]) came to 3.6%. In experiment [3], the pIC50 was less than 4.00.

As to `Cc1ccc2c(/C=C/C(=O)N(NC(=O)c3cccc(F)c3)C(C)C)cn(C(=O)OC(C)(C)C)c2c1` [Example 37, (E)-tert-butyl 3-(3-(2-(3-fluorobenzoyl)-1-isopropylhydrazinyl)-3-oxoprop-1-enyl)-6-methyl-1H-indole-1-carboxylate], in experiment [1], the activity at 10 µM was determined as 79.2% and the inhibition at 10 µM lay in the range of 20 to 30%. Moreover, the inhibition at 10 µM in experiment [2] (setting [4]) is 2.9%. Besides, the pIC50 in experiment [3] is less than 4.00.

For the compound `CC(C)N(NC(=O)c1cccc(F)c1)C(=O)/C=C/c1cn(C(=O)OC(C)(C)C)c2cc(F)ccc12` [Example 38, (E)-tert-butyl 6-fluoro-3-(3-(2-(3-fluorobenzoyl)-1-isopropylhydrazinyl)-3-oxoprop-1-enyl)-1H-indole-1-carboxylate], the activity at 10 µM in experiment [1] turned out to be 85.7%. Further, the inhibition at 10 µM in experiment [2] (setting [4]) was less than 0%. The negative logarithm of the IC50 (pIC50) in experiment [3] was less than 4.00.

Take `CC(C)CCn1cc(/C=C/C(=O)N(NC(=O)c2cccc(F)c2)C(C)C)c2ccccc21` [Example 39, (E)-3-fluoro-N′-(3-(1-isopentyl-1H-indol-3-yl)acryloyl)-N′-isopropylbenzohydrazide]: the activity at 10 µM in experiment [1] came to 50.8%. Moreover, in experiment [2] (setting [4]), the inhibition at 10 µM came to 42.3%. Also, the pIC50 in experiment [3] was 5.74.

With `CC(C)N(NC(=O)c1cccc(F)c1)C(=O)/C=C/c1cn(C)c2ccccc12` [Example 40, (E)-3-fluoro-N′-isopropyl-N′-(3-(1-methyl-1H-indol-3-yl)acryloyl)benzohydrazide], the activity at 10 µM in experiment [1] came out at 90%. For the same compound, the inhibition at 10 µM in experiment [2] (setting [4]) amounted to 2.2%. Moreover, the pIC50 in experiment [3] is less than 4.00.

Consider `CCn1cc(/C=C/C(=O)N(NC(=O)c2cccc(F)c2)C(C)C)c2ccccc21` [Example 41, (E)-N′-(3-(1-ethyl-1H-indol-3-yl)acryloyl)-3-fluoro-N′-isopropylbenzohydrazide], for which, in experiment [1], the activity at 10 µM amounted to 79.4% and the inhibition at 10 µM was in the range of 20 to 30%. For the same compound, the inhibition at 10 µM in experiment [2] (setting [4]) worked out at 20.3%. The pIC50 in experiment [3] was 5.09.

As for `CCCn1cc(/C=C/C(=O)N(NC(=O)c2cccc(F)c2)C(C)C)c2ccccc21` [Example 42, (E)-3-fluoro-N′-isopropyl-N′-(3-(1-propyl-1H-indol-3-yl)acryloyl)benzohydrazide], in experiment [1], the activity at 10 µM was determined as 79.9% and the inhibition at 10 µM lay in the range of 20 to 30%. The inhibition at 10 µM in experiment [2] (setting [4]) was found to be 32.4%. In addition, the pIC50 in experiment [3] was 5.44.

`CC(C)N(NC(=O)c1ccncc1)C(=O)/C=C/c1cn(C(=O)OC(C)(C)C)c2ccccc12` [Example 43, (E)-tert-butyl 3-(3-(2-isonicotinoyl-1-isopropylhydrazinyl)-3-oxoprop-1-enyl)-1H-indole-1-carboxylate]: the activity at 10 µM in experiment [1] was 81.3%. Moreover, the inhibition at 10 µM in experiment [2] (setting [4]) was 0.6%; in experiment [2] (setting [5]), less than 11%. The pIC50 in experiment [3] is 5.40.

Take `CC(C)N(NC(=O)c1cccc(Cl)c1)C(=O)/C=C/c1cn(C(=O)OC(C)(C)C)c2ccccc12` [Example 45, (E)-tert-butyl 3-(3-(2-(3-chlorobenzoyl)-1-isopropylhydrazinyl)-3-oxoprop-1-enyl)-1H-indole-1-carboxylate]: the activity at 10 µM in experiment [1] came out at 97.9%. The inhibition at 10 µM in experiment [2] (setting [4]) came to 28.7%. Besides, the pIC50 in experiment [3] is 5.66.

Turning to `CC(C)=CCn1cc(/C=C/C(=O)N(NC(=O)c2cccc(C)c2)C(C)C)c2ccccc21` [Example 50, (E)-N′-isopropyl-3-methyl-N′-(3-(1-(3-methylbut-2-enyl)-1H-indol-3-yl)acryloyl)benzohydrazide], in experiment [2] (setting [4]), the inhibition at 10 µM is 39%. In addition, the negative logarithm of the IC50 (pIC50) in experiment [3] is 5.34.

For `CC(C)=CCn1cc(/C=C/C(=O)N(NC(=O)c2ccc(C)cc2)C(C)C)c2ccccc21` [Example 51, (E)-N′-isopropyl-4-methyl-N′-(3-(1-(3-methylbut-2-enyl)-1H-indol-3-yl)acryloyl)benzohydrazide], the inhibition at 10 µM in experiment [2] (setting [4]) amounted to 37.1%. In addition, in experiment [3], the pIC50 was 5.00.
